PubChem BioAssay AID1996
≈ marks a conversion by molar mass, not a printed value.

details: buffer; pH 7.4; 200.0 µM

First: C=CCN(c1ccccc1)S(=O)(=O)c1c(C)[nH]c(=O)[nH]c1=O
Second: C=CCN(c1ccccc1OC)S(=O)(=O)c1cccc(C(=O)NC2=NCCS2)c1
The solubility kinetic of the first is higher: over 48.2 µg/mL for the first, 7.4 µg/mL (≈ 17.1 µM) for the second.

Going from `Cc1ccnc(NC(=O)Cn2c(=O)oc3ccccc32)c1` to `Cc1cccc(NC(=O)Cn2nc(-c3ccco3)ccc2=O)c1C`, the solubility kinetic rises from 10.9 µg/mL (≈ 38.5 µM) to over 48.5 µg/mL.

First: Cn1c(N)c(C(=O)COC(=O)c2ccccc2C(=O)c2ccc(Cl)cc2)c(=O)n(C)c1=O
Second: O=C(COC(=O)c1ccccc1O)Nc1ncc(Cl)cc1Cl
The solubility kinetic of the first is 3.7-fold lower: 6.3 µg/mL (≈ 13.8 µM) for the first, 23.5 µg/mL (≈ 68.9 µM) for the second.

`CCc1ccc(OCC2NCCc3cc(OC)c(OC)cc32)cc1` (centres undefined) and `COc1ccc(CNC(=S)NCc2ccc(F)cc2)cc1OC` cannot be ordered by solubility kinetic: over 49.1 µg/mL for the first, over 50.2 µg/mL for the second.

`CC(=O)Nc1ccc(C(=O)N2CC(=O)NC(=O)C2)cc1` and `CC(=O)c1cccc(NC(=O)N2CCC(NC(=O)c3ccco3)CC2)c1` cannot be ordered by solubility kinetic: over 41.3 µg/mL for the first, 51.6 µg/mL (≈ 145 µM) for the second.

Going from `Cc1ccc(-c2nc(CNC(=O)c3cc(C)on3)cs2)cc1` to `Cc1ccc(CNC(=O)c2cc(=O)c3ccc(C)cc3o2)cc1`, the solubility kinetic falls from 35.4 µg/mL (≈ 113 µM) to 2.6 µg/mL (≈ 8.46 µM) (14-fold).

Going from `O=C(CSc1ccc([N+](=O)[O-])cc1)Nc1ccccc1N1CCOCC1` to `COc1ccccc1NS(=O)(=O)c1cc(NC(=O)COc2ccccc2F)ccc1N1CCOCC1`, the solubility kinetic falls from 4.9 µg/mL (≈ 13.1 µM) to 2.4 µg/mL (≈ 4.66 µM) (2-fold).

`OC(CN1CCC(c2c[nH]c3ccccc23)CC1)C(F)(F)F` (centres undefined) and `O=C1N(CN2CCOCC2)c2ccccc2C12OCC(CCl)O2` (centres undefined) cannot be ordered by solubility kinetic: over 46.9 µg/mL for the first, 49.6 µg/mL (≈ 146 µM) for the second.

Going from `O=[N+]([O-])c1ccc2c(c1)C(c1ccccc1)=NCCN2` to `O=[N+]([O-])c1ccc(OCCn2cnc3ccccc32)cc1`, the solubility kinetic falls from 16.8 µg/mL (≈ 62.9 µM) to 7.6 µg/mL (≈ 26.8 µM) (2.2-fold).

Going from `Nc1ccc(-c2cn3cccnc3n2)cc1` to `c1ccc(-c2csc(Nc3cccnc3)n2)cc1`, the solubility kinetic falls from over 31.5 µg/mL to 2.2 µg/mL (≈ 8.68 µM).

First: COC(=O)c1ccc(/C=C(\C#N)c2ccccn2)cc1
Second: COc1cccc(CNc2ccc(C(=O)O)cc2)c1OCc1ccccc1
The solubility kinetic of the first is lower: 1.8 µg/mL (≈ 6.81 µM) for the first, over 54.5 µg/mL for the second.

`FC(F)Oc1ccccc1NC(=S)Nc1cccnc1` and `COc1ccccc1N1CCN(c2cnccn2)CC1` cannot be ordered by solubility kinetic: 43.8 µg/mL (≈ 148 µM) for the first, over 40.6 µg/mL for the second.

Compared with `O=C(C1CC(=O)N(c2ccc(Cl)cc2)C1)N1CCOCC1` (centres undefined), `O=C(Nc1ccccc1)[C@@H]1CCCN1S(=O)(=O)c1ccc(Cl)cc1` is 5.9-fold lower in solubility kinetic: 40 µg/mL (≈ 130 µM) for the first, 6.8 µg/mL (≈ 18.6 µM) for the second.

`O=C(Oc1cc(=O)oc2c1c(=O)n1c3c(cccc23)CC1)c1ccccc1` and `O=c1cc(O)c2ccccc2n1Cc1ccccc1` are within 1.5-fold of each other in solubility kinetic: 33 µg/mL (≈ 91.8 µM) for the first, 31.9 µg/mL (≈ 127 µM) for the second.

Going from `O=S(=O)(Nc1c(F)cccc1F)c1ccc2c(c1)OCCO2` to `N#Cc1ccc(NCC(=O)Nc2ccc3c(c2)OCCO3)cc1`, the solubility kinetic rises from 2.5 µg/mL (≈ 7.64 µM) to 29.6 µg/mL (≈ 95.7 µM) (12-fold).

Going from `CCOc1ccc(CNc2ccc(N3CCN(Cc4ccccc4)CC3)cc2)cc1` to `CC(=O)c1cccc(NC(=O)CSc2nc3ccccc3c(=O)n2CCCN2CCOCC2)c1`, the solubility kinetic rises from 0.9 µg/mL (≈ 2.24 µM) to over 72.1 µg/mL.

Compared with `CC(=O)N(c1nc(CCl)cs1)c1ccc(C)cc1C`, `Cc1cc(C)c2c(N)c(C(=O)Nc3ccc([N+](=O)[O-])cc3)sc2n1` is lower in solubility kinetic: over 44.2 µg/mL for the first, under 0.2 µg/mL for the second.

`O=C(CCc1ccccc1)NCCc1cccs1` and `Cl.O=C1NCC2(CCN(CCc3ccccc3)CC2)O1` cannot be ordered by solubility kinetic: over 38.9 µg/mL for the first, over 44.5 µg/mL for the second.

First: CNc1snc(C)c1C(=O)OCC(=O)N(C)c1ccccc1
Second: COC(=O)c1c(C)[nH]c(C(=O)OCC(=O)c2ccc(C)s2)c1C
The solubility kinetic of the first is higher: over 47.9 µg/mL for the first, 5.7 µg/mL (≈ 17 µM) for the second.

Going from `O=C(CS(=O)(=O)c1ccc2ccccc2c1)N1CCCCCC1` to `Nc1nc2ccccc2cc1S(=O)(=O)c1ccccc1`, the solubility kinetic falls from 47.1 µg/mL (≈ 142 µM) to 1.1 µg/mL (≈ 3.87 µM) (43-fold).

Compared with `Cc1cccc(NS(=O)(=O)c2ccc(C(C)(C)C)cc2)n1`, `NS(=O)(=O)c1ccc(NC(=O)COC(=O)CCCN2C(=O)c3cccc4cccc(c34)C2=O)cc1` is 4.9-fold lower in solubility kinetic: 42.7 µg/mL (≈ 140 µM) for the first, 8.8 µg/mL (≈ 17.8 µM) for the second.

`Cc1csc(SCC(=O)NC2CCCC2)n1` and `Cc1ccccc1OCCC(=O)OCC(=O)NC1CCCCC1` cannot be ordered by solubility kinetic: over 38.5 µg/mL for the first, over 47.9 µg/mL for the second.

Going from `O=C1CC(=O)N(c2cccc(C(F)(F)F)c2)C(=O)N1` to `CC1(C)CCC(=O)C=C1Nc1ccc(F)c(Cl)c1`, the solubility kinetic falls from over 40.8 µg/mL to 38.2 µg/mL (≈ 143 µM).

`CN(C)CC#CCC(O)(c1ccccc1)C1CCCCC1` (centres undefined) and `CCC1Oc2ccccc2N(CC(=O)NC2CC2)C1=O` (centres undefined) cannot be ordered by solubility kinetic: 42.7 µg/mL (≈ 150 µM) for the first, over 41.1 µg/mL for the second.

Compared with `O=C(c1ccccc1)C1NC1c1ccccc1` (centres undefined), `CC1(C)S[C@@H]2[C@H](NC(=O)C(C(=O)[O-])c3ccccc3)C(=O)N2[C@H]1C(=O)[O-].[Na+]` (some centres undefined) is higher in solubility kinetic: 26.9 µg/mL (≈ 120 µM) for the first, over 63.4 µg/mL for the second.

First: Cc1ccc(CC(=O)Nc2ccc(F)c([N+](=O)[O-])c2)cc1C
Second: CCCn1cnc2cc(NC(=O)c3ccco3)ccc21
The solubility kinetic of the first is lower: 4.1 µg/mL (≈ 13.6 µM) for the first, over 40.4 µg/mL for the second.

`COc1ccc2c(C=O)cn(C)c2c1` and `COc1cccc(C(=S)N2CCCC2)c1OC` cannot be ordered by solubility kinetic: over 28.4 µg/mL for the first, 35.3 µg/mL (≈ 140 µM) for the second.

`CCOC(=O)C1(Cc2cccc(F)c2)CCN(C(=O)C2CCC2)CC1` and `N#Cc1ccccc1OCC(=O)OCC(=O)NC1CCS(=O)(=O)C1` (centres undefined) cannot be ordered by solubility kinetic: over 52.1 µg/mL for the first, over 52.9 µg/mL for the second.

First: Cc1ccc(C(=O)/C=C/N(C)C)cn1
Second: Nc1nnc(SCC(=O)Nc2cccnc2Cl)s1
The solubility kinetic of the first is lower: 26.6 µg/mL (≈ 140 µM) for the first, over 45.3 µg/mL for the second.

With `CC1(C)C2CCC(C2)C1(C)N=C1OC(CCl)CS1` (centres undefined) the solubility kinetic was 5.9 µg/mL (≈ 20.5 µM).
